# Measured values from patent publication US20240390403A1, “COMPOSITION AND METHODS FOR TREATING AN ANEURYSM” (Nectero Medical, Inc., priority 2023, published 2024).
# System: porcine abdominal aortas
# Assay: opening angle experiment on porcine abdominal aortic rings
# Details: for statistical analysis of opening angles (ANOVA): Example 13, 50-fold dilution (0.05 mM; Glutaraldehyde 0.5% in PBS, pH 7.4), n=9 rings
# Protocol: In this study, compounds of this disclosure were added to abdominal aortas in an opening angle experiment to determine how they would affect the aorta in vitro. Thus, to understand the ability of the compounds of this disclosure to bind to aortic elastin and determine their ability to affect the aorta and aneurysms.
# Twelve porcine abdominal aortas were ordered and received. The infra-renal sections of these aortas were dissected, cleaned, rinsed, and then cut into rings measuring 3 mm in width. […] These rings were mixed up before testing to randomize them based on their location in the artery. They were then stored in 500 ml of saline. Analog solutions were prepared at the same molar concentration, but they were not normalized for gallic acid content as indicated in Table 1. These solutions of analogs were made using a solution containing about 26% iopamidol, a radioopaque contrast agent. […] All solutions were prepared one day prior to their use. […] For each solution, 6 aortic rings were placed in a pre-labeled 50 ml conical tube containing 20 ml of the solution, resulting in a volume to tissue ratio of approximately 3.3 ml of solution per ring. The tubes were then incubated at room temperature for 3 hours, with rotation every 30-40 minutes.
# After the treatment, while still in the tube, the solution was decanted, and the rings were rinsed three times in PBS and then suspended in PBS. The rings were placed in a 6-well plate, with 2 rings per well and 3 ml of PBS in each well. Each ring was opened with a single cut using fine scissors and laid back in the well. The rings were allowed 15 minutes to recoil in the PBS at room temperature, with gentle shaking every 5 minutes.
# Photographs of the rings were taken, and their opening angles were measured using Image J software. The data were then plotted and statistical analyses were performed for comparison.
# All solutions were prepared one day prior to their use.
# For this experiment, nine aortic rings were placed in 30 ml of a pre-prepared solution within a 50 ml conical tube. […] The tubes were then incubated at room temperature for 3 hours, with rotations occurring every 30-40 minutes. After the incubation period, while still in the tubes, the solution was poured off, and the rings were rinsed three times with PBS and then left suspended in PBS. The rings were then transferred to a 6-well plate, with 2 rings per well and 3-4 ml of PBS in each well. Each ring was opened with a single cut using fine scissors and laid flat in the well. They were allowed to recoil for 15 minutes in PBS at room temperature, with gentle shaking every 5 minutes. Photographs were taken, and the opening angle was measured using the Image J software.
compound,measurement,setting,value
"O=CCCCC=O [Glutaraldehyde, reference compound]",statistical analysis of opening angles (ANOVA),,significantly different from all controls and analogs
"O=C(OC[C@H]1O[C@@H](OC(=O)c2cc(O)c(O)c(O)c2)[C@H](OC(=O)c2cc(O)c(O)c(O)c2)[C@@H]1OC(=O)c1cc(O)c(O)c(O)c1)c1cc(O)c(O)c(O)c1 [TG-ribose, polygalloyl ribose]",statistical comparison of mean opening angles among analogs (FIG. 3),"Example 12, 2.49 mM, n=6 rings",statistically significant lower opening angles
"O=C(OC[C@@H]1O[C@@H](OC(=O)c2cc(O)c(O)c(O)c2)[C@H](OC(=O)c2cc(O)c(O)c(O)c2)[C@@H](OC(=O)c2cc(O)c(O)c(O)c2)[C@H]1OC(=O)c1cc(O)c(O)c(O)c1)c1cc(O)c(O)c(O)c1 [α-PGG, pentagalloyl α-glucose]",statistical comparison of mean opening angles among analogs (FIG. 3),"Example 12, 2.49 mM, n=6 rings",not statistically different
"O=C(OC[C@H]1O[C@@H](OC(=O)c2cc(O)c(O)c(O)c2)[C@H](OC(=O)c2cc(O)c(O)c(O)c2)[C@@H](OC(=O)c2cc(O)c(O)c(O)c2)[C@@H]1OC(=O)c1cc(O)c(O)c(O)c1)c1cc(O)c(O)c(O)c1 [β-PGG, pentagalloyl β-glucose, reference compound]",statistical comparison of mean opening angles among analogs (FIG. 3),"Example 12, 2.49 mM, n=6 rings",not statistically different
same,statistical analysis of opening angles (ANOVA),,significantly different from all controls and analogs
polygalloyl maltose [OG-maltose],opening angle compared to the PBS subgroup (statistics),"Example 12, 2.49 mM, n=6 rings","statistically significant differences, except for OG-maltose"
same,variability of opening angles relative to control samples,"Example 12, 2.49 mM, n=6 rings",substantially reduced
polygalloyl-sucrose [OG-sucrose],variability of opening angles relative to control samples,"Example 12, 2.49 mM, n=6 rings",substantially reduced
